Measurements reported in article PMC7377239, “Cardiovascular Effects of Polychlorinated Biphenyls and Their Major Metabolites” (Environmental Health Perspectives, 2020).
Read-outs that look alike come from different tables or passages of the source.

Test system: iCell cardiomyocytes (human iPSC-derived cardiomyocytes)
Assay: Intracellular Ca2+ flux / beating parameters in iCell cardiomyocytes (FLIPR tetra), 90 min or 24 h
Format: cell-based
Conditions: Homo sapiens, Cardiomyocyte, 0.00 µM = 100.00; for activity at 0.1 µM: 0.10 µM
How it was run: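 Gelatin-plated iCell cardiomyocytes (5,000/well) were dye-loaded for 2 h at 37 °C, then exposed for 90 min or 24 h to PCBs/metabolites (5× plates at 0.05–500 µM; 0.5% DMSO final) in triplicate. Ca2+ flux was read for 100 s at 8 Hz and 37 °C. Peak height, frequency, spacing CV and decay/rise ratio were vehicle-normalized and fitted with a four-parameter logistic model, with POD set at 1 SD of vehicle.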

[1] = 1.5 h, read-out: cm.amp.avg.90min
[2] = 1.5 h, read-out: cm.amp.cv.90min
[3] = 1.5 h, read-out: cm.decay.rise.90min
[4] = 1.5 h, read-out: cm.spacing.cv.90min
[5] = 24 h, read-out: cm.amp.avg.24hrs
[6] = 24 h, read-out: cm.amp.cv.24hrs
[7] = 24 h, read-out: cm.decay.rise.24hrs
[8] = 24 h, read-out: cm.spacing.cv.24hrs

## COc1ccc(-c2cccc(Cl)c2)cc1Cl [4-OMe PCB11]
[1]
  activity at 0.01 µM: 85.7%
  activity at 0.1 µM: 97.2%
  activity at 1 µM: 106%
  activity at 10 µM: 94.1%
  activity at 100 µM: 0%
[2]
  activity at 0.01 µM: 106%
  activity at 0.1 µM: 98.8%
  activity at 1 µM: 101%
  activity at 10 µM: 109%
  activity at 100 µM: 0%
1.5 h, read-out: cm.bpm.90min
  activity at 0.01 µM: 99.1%
  activity at 0.1 µM: 105%
  activity at 1 µM: 96.5%
  activity at 10 µM: 127%
  activity at 100 µM: 0%
[3]
  activity at 0.01 µM: 99.7%
  activity at 0.1 µM: 99.7%
  activity at 1 µM: 101%
  activity at 10 µM: 94%
  activity at 100 µM: 0%
[4]
  activity at 0.01 µM: 111%
  activity at 0.1 µM: 106%
  activity at 1 µM: 145%
  activity at 10 µM: 102%
  activity at 100 µM: 0%
[5]
  activity at 0.01 µM: 121%
  activity at 0.1 µM: 79.3%
  activity at 1 µM: 107%
  activity at 10 µM: 92.1%
  activity at 100 µM: 0%
[6]
  activity at 0.01 µM: 82.2%
  activity at 0.1 µM: 98.7%
  activity at 1 µM: 95.6%
  activity at 10 µM: 119%
  activity at 100 µM: 0%
24 h, read-out: cm.bpm.24hrs
  activity at 0.01 µM: 110%
  activity at 0.1 µM: 103%
  activity at 1 µM: 90.7%
  activity at 10 µM: 123%
  activity at 100 µM: 0%
[7]
  activity at 0.01 µM: 94.8%
  activity at 0.1 µM: 98.9%
  activity at 1 µM: 111%
  activity at 10 µM: 109%
  activity at 100 µM: 0%
[8]
  activity at 0.01 µM: 108%
  activity at 0.1 µM: 101%
  activity at 1 µM: 98.4%
  activity at 10 µM: 118%
  activity at 100 µM: 0%
